Laboratory results from article PMC10650486, “Fluoroquinolone-Based Organic Salts (GUMBOS) with Antibacterial Potential” (International Journal of Molecular Sciences, 2023).
Entries after “also recorded” stand apart in the source; their conditions may differ. Where a name gives a salt, the structure may show the parent alone. Read-outs that look alike come from different tables or passages of the source.

How the values were obtained:
[1] = cited from earlier work
[2] = system: E. coli; parameters: method as in earlier work; conditions: cited from earlier work
[3] = system: S. aureus; parameters: method as in earlier work; conditions: cited from earlier work
[4] = Octanol/water partition coefficient, shake-flask method; assay type: physicochemical; conditions: for logKO/W ± SD: octanol/water, shake-flask, mean ± standard deviation; for relative hydrophobicity from log KO/W: ranking within the [Cip]-based or [Mox]-based GUMBOS
Protocol: Following synthesis and structural characterization of FQ-based GUMBOS, octanol/water partition coefficient (Ko/w) values were obtained through a shake-flask method with minor modifications. Initially, water and 1-octanol were saturated by agitation for 24 h at room temperature. GUMBOS were solubilized in 5 mL of water-saturated octanol (Ci), to which an equivalent volume of octanol-saturated water was added. This solution subjected to 24 h of agitation and the absorbance of the upper layer was measured at a wavelength of 280 nm. Sample concentration in octanol (Co) was determined through a calibration curve, which was created using six solutions of different concentrations (4–30 μmol·L^−1) of GUMBOS in 1-octanol. Later, GUMBOS concentration in water (Cw) were obtained by the following equation Ci − C0 = Cw. Octanol/water partition coefficient (Ko/w) values were then calculated using Ko/w = Co/Cw. Data were representative of three replicates executed for each of the GUMBOS.

[5] = Thermogravimetric analysis (TGA), thermal stability; assay type: physicochemical; conditions: for Tonset / Tpeak / Tstart: 10 °C min^−1, N2 atmosphere; for Residue at 500 °C: mass residue remaining at 500 °C; for Tpeak: temperature at highest degradation rate; for Tstart: temperature where weight loss starts
Protocol: Thermogravimetric analysis (TGA) was executed using a Hi-Res modulated TGA 2950 thermogravimetric analyzer (TA Instruments, New Castle, DE, USA) and curves were obtained for all GUMBOS. Approximately 1-3 mg of GUMBOS was placed in a platinum pan and heated from 25 °C to 575 °C at a slow heating rate of 10 °C min^-1. Some characteristic parameters were extrapolated. For DSC and TGA, onset temperatures (Tonset) were determined as the temperature value matching the intersection point of the extrapolated initial baseline and the tangent or line through the linear section of the leading edge of the Tpeak point where the Tpeak was the temperature value at the highest degradation rate. For TGA, additional data were collected such as the temperature value where weight loss starts ([…]), and the percentage of mass residue remaining at 500 °C which allows evaluation of the short-term stability. All these parameters were extrapolated using the software NETZSCH Proteus® version 6.1081 (Netzsch-Gerätebau GmbH, Selb, Germany) for DSC analysis and Universal Analysis 2000 version 4.5A (TA Instruments-Waters LLC, New Castle, DE, USA) for TGA analysis.

[6] = system: Staphylococcus aureus subsp. aureus Rosenbach ATCC 25923; assay: Antibacterial susceptibility testing, broth microdilution, bacterial growth by absorbance at 630 nm; assay type: cell-based
Protocol: To evaluate the antimicrobial profile, a study was performed using the broth microdilution standard method with minor modifications using DMSO as solvent. Standard laboratory strains of Gram-positive Staphylococcus aureus subsp. aureus Rosenbach ATCC 25923 and Gram-negative Escherichia coli O157:H7 were studied. TSB was used as the culture medium for bacteria and samples with bacteria in media were considered positive controls.
Antibacterial activity of GUMBOS was evaluated by comparing it with negative controls, as well as with the antibacterial activity of the parent compounds, [Cip][HCl] and [Mox][HCl]. […] These values are determined through laboratory testing and can vary depending on the testing methodology and conditions, thus the range increase in this study to 25 mg·L^−1. Stock solutions were prepared using water for water-soluble compounds while non-water soluble compounds were reconstituted using a deionized water solution containing 5% DMSO [96]. Following that, the compounds were diluted using fresh tryptic soy broth (TSB) to achieve desired concentrations. Initially, agar media was used to grow additional bacteria to correlate absorbance readings to microbial counts. Then, a solution of 0.1 mL of S. aureus added to 10 mL of TSB was incubated at 37 °C for 24 h and repeated for three more days until enough bacteria was obtained. After centrifugation and washing steps with PBS (1×) solution until obtaining a homogenized pellet, the inoculum was then diluted to 0.06 absorbance at 630 nm or 0.5 McFarland [97]. After compounds were diluted in TSB, 100 μL of samples with 100 μL of S. aureus inoculum were then transferred to a 96-well flat bottom microtitre plate (TPP, Switzerland) which was sealed and left in incubation at 37 °C for 24 h. Absorbance was read at 630 nm with a BioTek universal microplate reader (Agilent Technologies, VT, USA) to determine the turbidity in the wells [97, 98]. Three wells were prepared per sample. To ensure the viability and growth of bacteria in the culture media, negative controls were conducted along with a positive culture using the media containing only the bacteria. [Cip][HCl] served as the reference antibacterial agent.

[7] = system: L929 mouse fibroblast cells; assay: Cytotoxicity evaluation, resazurin reduction assay; assay type: cell-based; conditions: 24 h exposure
Protocol: To assess the impact of GUMBOS on cell viability, the resazurin assay was employed using L929 mouse fibroblast cells as described previously by Page et al.. The L929 cells were cultured at 37 °C in a 5% CO2 atmosphere, utilizing DMEM supplemented with 10% FBS and 1% streptomycin/gentamycin. Once the cell culture reached 70–80% confluence, it was detached using a 0.25% (w/v) trypsin-ethylenediaminetetraacetic acid (EDTA) solution. The cells were then subjected to centrifugation with the Heraeus Multifuge X1R centrifuge (Thermo Fisher Scientific; Waltham, MA, USA) and resuspended in fresh medium. Viable cell counts were obtained through a Neubauer chamber (Improved Neubauer Bright-Line, Boeco; Hamburg, Germany).
For experiments, L929 cells were seeded at a density of 5 × 10^4 cells per well in 96-well microplates and supplemented with DMEM medium. Plates were placed in a humidified incubator at 37 °C with 5% CO2 for 24 h to allow cell attachment and growth. Subsequently, the culture medium was replaced with different concentrations of each sample being tested. After 24h incubation, the medium was replaced with fresh culture medium containing 10% resazurin. Cells were then incubated for 4 h in the dark at 37 °C with 5% CO2 to allow resazurin conversion. Fluorescence of resorufin was measured using a plate reader (Synergy HT plate reader-Biotek Instruments, Winooski, VT, USA) with excitation at 560 nm and emission at 590 nm. Negative control wells contained only culture medium, while positive control wells contained the cation precursor, the active pharmaceutical ingredient. All experiments were conducted in triplicate.

[8] = TGA, parent compound; cited from earlier work
[9] = system: E. coli O157:H7; parameters: method as in PMID 23447139; conditions: same E. coli O157:H7 strain; cited from earlier work
[10] = 0.25 mg·L^−1, 24 h exposure, Figure 4a
[11] = 25 mg·L^−1, 24 h exposure, Figure 4b
[12] = 50 mg·L^−1 (highest concentration)

Row | Compound | logKO/W ± SD [4] | Tonset [5] [°C] | Residue at 500 °C [5] [%] | Tpeak [5] [°C] | Tstart [5] [°C] | further results
1 | O=C(O)c1cn(C2CC2)c2cc(N3CCNCC3)c(F)cc2c1=O [[Cip], ciprofloxacin] | – | – | – | – | – | logKO/W [1]: −0.13; epidemiologic cutoff value (ECOFF) [2]: 0.06 mg·L^−1; epidemiologic cutoff value (ECOFF) [3]: 2 mg·L^−1
2 | O=C(O)c1cn(C2CC2)c2cc(N3CCNCC3)c(F)cc2c1=O.O=S(=O)(NS(=O)(=O)C(F)(F)C(F)(F)F)C(F)(F)C(F)(F)F [[Cip][BETI]] | −0.314 ± 0.094 | 284.61 | 35.43 | 294.04 | 266.25 | –
3 | CCCCC(CC)COC(=O)CC(C(=O)OCC(CC)CCCC)S(=O)(=O)O.O=C(O)c1cn(C2CC2)c2cc(N3CCNCC3)c(F)cc2c1=O (centres unmarked) [[Cip][Doc]] | 0.162 ± 0.015 | 286.49 | 24.26 | 286.64 | 252.18 | relative hydrophobicity from log KO/W [4]: most hydrophobic
4 | C[C@H](CCC(=O)O)[C@H]1CC[C@H]2[C@@H]3CC[C@@H]4C[C@H](O)CC[C@]4(C)[C@H]3C[C@H](O)[C@]12C.O=C(O)c1cn(C2CC2)c2cc(N3CCNCC3)c(F)cc2c1=O [[Cip][Dxc]] | −1.110 ± 0.018 | 326.23 | 19.75 | 332.30 | 211.93 | relative hydrophobicity from log KO/W [4]: most hydrophilic; antibacterial performance (bacterial growth) against S. aureus [6, 10]: least antimicrobial agent of all tested samples; antibacterial performance (bacterial growth) against S. aureus [6, 11]: significant differences from their corresponding precursors; also recorded: least antimicrobial agent of all tested samples; cytotoxicity to L929 cells (cell viability) [7, 12]: some levels of cell toxicity; also recorded: slight toxicity
5 | O=C(O)c1cn(C2CC2)c2cc(N3CCNCC3)c(F)cc2c1=O [[Cip][HCl], Ciprofloxacin hydrochloride monohydrate] | – | – | – | – | – | Tonset [8]: 300 °C; Tpeak [8]: 318 °C; Tstart [8]: 150 °C
6 | O=C(O)c1cn(C2CC2)c2cc(N3CCNCC3)c(F)cc2c1=O.O=S(=O)(NS(=O)(=O)C(F)(F)F)C(F)(F)F [[Cip][NTF2]] | 0.145 ± 0.075 | 287.79 | 39.88 | 295.18 | 263.57 | antibacterial performance (bacterial growth) against S. aureus [6, 10]: activities closer to their precursor
7 | O=C(O)c1cn(C2CC2)c2cc(N3CC[NH2+]CC3)c(F)cc2c1=O.c1ccc([B-](c2ccccc2)(c2ccccc2)c2ccccc2)cc1 [[Cip][TPB]] | −0.464 ± 0.006 | 117.85 | 36.93 | 122.95 | 98.94 | cytotoxicity to L929 cells (cell viability) [7, 12]: some levels of cell toxicity
8 | COc1c(N2C[C@@H]3CCCN[C@@H]3C2)c(F)cc2c(=O)c(C(=O)O)cn(C3CC3)c12.O=S(=O)(NS(=O)(=O)C(F)(F)C(F)(F)F)C(F)(F)C(F)(F)F [[Mox][BETI]] | – | 307.46 | 32.31 | 322.97 | 266.98 | –
9 | CCCCC(CC)COC(=O)CC(C(=O)OCC(CC)CCCC)S(=O)(=O)O.COc1c(N2C[C@@H]3CCCN[C@@H]3C2)c(F)cc2c(=O)c(C(=O)O)cn(C3CC3)c12 [[Mox][Doc]] | – | 271.04 | 33.55 | 275.90 | 249.91 | antibacterial performance (bacterial growth) against S. aureus [6, 10]: activities closer to their precursor; antibacterial performance (bacterial growth) against S. aureus [6, 11]: significant differences from their corresponding precursors
10 | COc1c(N2C[C@@H]3CCCN[C@@H]3C2)c(F)cc2c(=O)c(C(=O)O)cn(C3CC3)c12.C[C@H](CCC(=O)O)[C@H]1CC[C@H]2[C@@H]3CC[C@@H]4C[C@H](O)CC[C@]4(C)[C@H]3C[C@H](O)[C@]12C [[Mox][Dxc]] | – | 275.22 | 15.60 | 284.97 | 208.92 | –
11 | COc1c(N2C[C@@H]3CCCN[C@@H]3C2)c(F)cc2c(=O)c(C(=O)O)cn(C3CC3)c12 [[Mox][HCl], moxifloxacin hydrochloride monohydrate] | – | – | – | – | – | Tonset [8]: 240 °C; Tpeak [8]: 260 °C; Tstart [8]: 220 °C
12 | COc1c(N2C[C@@H]3CCCN[C@@H]3C2)c(F)cc2c(=O)c(C(=O)O)cn(C3CC3)c12.O=S(=O)(NS(=O)(=O)C(F)(F)F)C(F)(F)F [[Mox][NTF2]] | – | 319.64 | 24.57 | 327.51 | 297.72 | cytotoxicity to L929 cells (cell viability) [7, 12]: slight toxicity
13 | COc1c(N2C[C@@H]3CCC[NH2+][C@@H]3C2)c(F)cc2c(=O)c(C(=O)O)cn(C3CC3)c12.c1ccc([B-](c2ccccc2)(c2ccccc2)c2ccccc2)cc1 [[Mox][TPB]] | – | 176.37 | 42.13 | 177.21 | 144.02 | antibacterial performance (bacterial growth) against S. aureus [6, 10]: activities closer to their precursor; antibacterial performance (bacterial growth) against S. aureus [6, 11]: significant differences from their corresponding precursors
14 | c1ccc([B-](c2ccccc2)(c2ccccc2)c2ccccc2)cc1 [[Na][TPB], sodium tetraphenylborate, reference compound] | – | – | – | – | – | cytotoxicity to L929 cells (cell viability) ([7]; two highest concentrations (25 and 50 mg·L^−1)): cytotoxic
15 | CC1(C)SC2C(NC(=O)C(N)c3ccccc3)C(=O)N2C1C(=O)O.CC1(C)SC2C(NC(=O)C(N)c3ccccc3)C(=O)N2C1C(=O)O.N=C(NCCCCCCNC(=N)NC(=N)Nc1ccc(Cl)cc1)NC(=N)Nc1ccc(Cl)cc1 [chlorhexidine di-ampicillin] | – | – | – | – | – | concentrations at which growth was inhibited [9]: 0.06 to 0.12 mg/L
